The values that follow come from US20110059982A1, “AZAINDOLE COMPOUNDS FOR TREATMENT OF CENTRAL NERVOUS SYSTEM DISORDERS” (MERCK PATENT GESELLSCHAFT MIT BESCHRANKTER HAFTUNG, priority 2008, published 2011).

In data set [1] the target is T1, Serotonin reuptake (Rattus norvegicus, UniProt P31652).
T1 construct: from tissue
In words: Serotonin re-uptake inhibition, synaptosomal, [3H]5-HT as tracer. The data set is classed as biochemical. The following applies: [3H]5-HT tracer, imipramine as reference, read-out: IC50 (nmol/L), Serotonin reuptake. The method, then: Serotonin re-uptake inhibition was determined by means of synaptosomal re-uptake inhibition as described by Perovic & Muller et al. (Arzneim-Forsch. Drug. Res. 1995, 45:1145-1148) with [^3H]5-HT as tracer and imipramine as reference.

Data set [2] concerns the target T2, Norepinephrine uptake (Rattus norvegicus, UniProt Q63380).
T2 construct: from tissue
In words: Norepinephrine uptake, [3H]NE as tracer. Format: biochemical. The following applies: [3H]NE tracer, protriptyline as reference; read-out: IC50 (nmol/L), Norepinephrine. The method, then:
Norepinephrine uptake was determined as described in the Perovic & Muller work with [^3H]NE as tracer and protriptyline as reference.

Data set [3] deals with T3, Dopamine uptake (Rattus norvegicus, UniProt P23977).
T3 construct: A crude synaptosomal membrane preparation from various regions of rat brain was prepared; from tissue; host or cells: crude synaptosomal preparation from rat brain (Sprague-Dawley)
T3 sequence (P23977 whole entry): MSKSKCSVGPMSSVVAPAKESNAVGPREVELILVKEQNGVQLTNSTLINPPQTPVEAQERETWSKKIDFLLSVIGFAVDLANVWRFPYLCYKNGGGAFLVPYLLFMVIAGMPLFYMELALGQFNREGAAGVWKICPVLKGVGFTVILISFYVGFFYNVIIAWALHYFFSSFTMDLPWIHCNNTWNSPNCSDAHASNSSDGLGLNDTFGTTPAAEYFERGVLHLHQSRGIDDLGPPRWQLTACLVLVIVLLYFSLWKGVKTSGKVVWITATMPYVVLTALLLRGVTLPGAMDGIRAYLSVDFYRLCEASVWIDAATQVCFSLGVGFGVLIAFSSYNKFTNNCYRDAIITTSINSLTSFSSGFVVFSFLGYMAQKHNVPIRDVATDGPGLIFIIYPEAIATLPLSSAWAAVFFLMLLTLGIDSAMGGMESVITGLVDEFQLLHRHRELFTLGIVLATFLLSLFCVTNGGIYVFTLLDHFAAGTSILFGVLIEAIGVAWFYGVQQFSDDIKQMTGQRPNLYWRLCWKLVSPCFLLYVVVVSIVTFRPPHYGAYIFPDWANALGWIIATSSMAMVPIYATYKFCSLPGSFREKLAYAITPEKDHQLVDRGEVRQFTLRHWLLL
In words: [3H]Dopamine uptake inhibition in crude synaptosomal preparation. The data set is classed as biochemical. The following applies: rat brain synaptosomal preparation, [3H]DA tracer, GBR12909 as reference; read-out: IC50 (nmol/L), Dopamine. The method, then: Dopamine uptake inhibition was determined as described by Janowsky et al. (Neurochem. 1986, 46:1272-1276) with [^3H]DA as tracer and GBR12909 as reference.
[^3H]Dopamine uptake inhibition is as provided below:
Tissue preparation—A crude synaptosomal membrane preparation from various regions of rat brain was prepared as described by Berger et al. (Eur. J. Pharmacol. 1985, 107:289-290). Brain tissue from adult male Sprague-Dawley rats (150-200 g) was homogenized in 10 volumes of ice-cold sucrose (0.32 M) using a Teflon glass homogenizer, and centrifuged at 1000 g for 10 min. […] The final protein concentration was 100-200 μg protein/mL, as determined by the method of Lowry et al. (J. Biol. Chem. 1951, 193:265-275).
The uptake of [^3H]dopamine in a crude synaptosomal preparation was measured as described by Harris et al. (Life Sci. 1973, 13:303-312). […] The filters were rinsed three times with 4 mL of ice-cold buffer (Tris-HCl, 50 mM, pH 7.7, containing 120 mM NaCl) and the radioactivity remaining on the filters was measured by conventional liquid scintillation spectrometry. […]
Assay tubes contained 250 μL of the tissue preparation, 50 μL of [^3H]dopamine (40 nM) 200 μL of buffer or various uptake inhibitors, and 1.0 mL of Krebs-Ringer bicarbonate buffer (pH 7.4). […] Radioactivity remaining on the filters was measured by conventional liquid scintillation spectrometry.

Data set [4] addresses T4, 5-HT1A receptor (Homo sapiens, UniProt P08908).
T4 sequence (P08908 1-422): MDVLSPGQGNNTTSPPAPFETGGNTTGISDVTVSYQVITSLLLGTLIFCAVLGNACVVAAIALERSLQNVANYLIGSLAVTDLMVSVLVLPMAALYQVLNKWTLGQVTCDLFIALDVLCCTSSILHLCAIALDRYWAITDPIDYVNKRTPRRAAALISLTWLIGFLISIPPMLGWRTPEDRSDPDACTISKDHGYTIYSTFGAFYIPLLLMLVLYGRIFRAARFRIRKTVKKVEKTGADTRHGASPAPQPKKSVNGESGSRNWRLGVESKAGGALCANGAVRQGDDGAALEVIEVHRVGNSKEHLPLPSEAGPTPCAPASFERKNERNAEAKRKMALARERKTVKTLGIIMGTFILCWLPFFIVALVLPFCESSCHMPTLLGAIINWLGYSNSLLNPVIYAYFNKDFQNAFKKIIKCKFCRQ
The experiment in a line: 5-HT1A binding assay, [3H]8-OH-DPAT as ligand. The following applies: 8-OH-DPAT as reference; for IC50: read-out: IC50 (nmol/L), 5-HT1A. The method, then:
Binding properties at the 5-HT1A receptor were determined by means of the 5-HT1A binding assay as described in the literature by Mulheron et al. (J. Biol. Chem. 1994, 269:12954-12962) with [^3H]8-OH-DPAT as ligand and 8-OH-DPAT as reference.

A word on the Ki: it is the dissociation constant of the complex between target and ligand, obtained from inhibition or displacement. A high value points to a looser hold on the target. One may read the melting point as the temperature, or range, at which the solid turns liquid.

T1 sequence (P31652 whole entry): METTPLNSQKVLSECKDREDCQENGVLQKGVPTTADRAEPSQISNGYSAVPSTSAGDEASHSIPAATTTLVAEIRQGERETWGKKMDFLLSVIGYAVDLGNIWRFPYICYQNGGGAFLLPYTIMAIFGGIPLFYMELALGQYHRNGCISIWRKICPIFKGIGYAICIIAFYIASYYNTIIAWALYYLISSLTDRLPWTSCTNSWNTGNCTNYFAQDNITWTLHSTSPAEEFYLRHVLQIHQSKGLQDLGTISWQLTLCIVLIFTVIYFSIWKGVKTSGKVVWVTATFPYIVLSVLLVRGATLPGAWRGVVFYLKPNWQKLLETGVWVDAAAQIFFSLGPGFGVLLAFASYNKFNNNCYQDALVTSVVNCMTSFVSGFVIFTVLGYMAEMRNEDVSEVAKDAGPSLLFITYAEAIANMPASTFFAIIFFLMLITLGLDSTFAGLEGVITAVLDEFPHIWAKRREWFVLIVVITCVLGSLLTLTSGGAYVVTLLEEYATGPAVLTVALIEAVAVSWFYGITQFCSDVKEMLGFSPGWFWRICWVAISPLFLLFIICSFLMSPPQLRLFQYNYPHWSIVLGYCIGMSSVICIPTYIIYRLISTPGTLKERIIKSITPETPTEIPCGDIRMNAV
T2 sequence (Q63380 1-617): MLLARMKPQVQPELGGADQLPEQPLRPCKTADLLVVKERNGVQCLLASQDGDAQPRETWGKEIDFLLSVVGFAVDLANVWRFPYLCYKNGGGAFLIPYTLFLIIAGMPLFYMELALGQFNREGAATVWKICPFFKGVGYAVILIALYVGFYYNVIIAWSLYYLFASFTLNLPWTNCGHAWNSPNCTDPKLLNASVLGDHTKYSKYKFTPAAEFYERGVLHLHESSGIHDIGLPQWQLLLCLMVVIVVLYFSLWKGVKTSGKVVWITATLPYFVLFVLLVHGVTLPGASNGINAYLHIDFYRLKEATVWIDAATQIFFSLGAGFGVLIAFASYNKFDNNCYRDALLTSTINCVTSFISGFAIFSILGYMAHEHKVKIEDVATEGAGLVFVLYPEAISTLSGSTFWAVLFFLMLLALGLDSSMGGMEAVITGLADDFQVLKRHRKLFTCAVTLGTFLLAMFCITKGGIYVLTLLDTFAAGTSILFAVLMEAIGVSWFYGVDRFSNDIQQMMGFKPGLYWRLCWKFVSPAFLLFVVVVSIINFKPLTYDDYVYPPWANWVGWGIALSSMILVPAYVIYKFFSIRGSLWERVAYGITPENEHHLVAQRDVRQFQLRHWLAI

In the case of `N#Cc1cnc2[nH]cc(CCCCN3CCN(c4ccc5oc(C(N)=O)cc5c4)CC3)c2c1` [Example 1, 5-{4-[4-(5-Cyano-1H-pyrrolo[2,3-b]pyridine-3-yl)-butyl]-piperazin-1-yl}-benzofuran-2-carboxylic acid amide], the IC50 was 51 to 100 nmol/L in data set [1], 101 to 150 nmol/L in data set [2], above 200 nmol/L in data set [3] and 151 to 200 nmol/L in data set [4]. Further, the inhibitory constant (Ki) in data set [4] is 101 to 150 nM.
The matching figures for `N#Cc1ccc2[nH]cc(CCCCN3CCN(c4ccc5oc(C(N)=O)cc5c4)CC3)c2n1` [Example 2, 5-{4-[4-(5-Cyano-1H-pyrrolo[3,2-b]pyridine-3-yl)-butyl]-piperazin-1-yl}-benzofuran-2-carboxylic acid amide]: above 200 nmol/L, 151 to 200 nmol/L, above 200 nmol/L, 51 to 100 nmol/L and 1 to 50 nM.
In turn, `N#Cc1cnc2[nH]cc(CCCCN3CCC(Oc4ccc5c(c4)OCCO5)CC3)c2c1` [Example 3, 3-{4-[4-(2,3-Dihydro-benzo[1,4]dioxin-6-yloxy)-piperidin-1-yl]-butyl}-1H-pyrrolo[2,3-b]pyridine-5-carbonitrile] yielded a melting point of 240 to 242 °C.
